In patent US10246455B2, “Histone deacetylase inhibitors” (Taipei Medical University, priority 2014, dated 2019):

Legend:
HDAC2 = HDAC2 (Homo sapiens, UniProt Q92769); experiment: Deacetylase enzyme assay (fluorescence release): HDAC2; type: biochemical; conditions: 24-hour study
From the text: (§1) Proteins from cells were extracted and subjected to the western blotting analysis. β-Actin was used as an internal control. The deacetylase enzyme assay was based on a homogeneous fluorescence release assay. […] After fluorophore from the deacetylated substrates, fluorescent signal was detected.

[1] = test system: LNCaP-104 (prostate carcinoma); experiment: IC50 against human cancer cell lines: LNCaP-104; conditions: read-out: IC50 ± SD against human cancer cell lines
HDAC 1 = HDAC 1 (Homo sapiens, UniProt Q13547); experiment: Deacetylase enzyme assay (fluorescence release): HDAC1; type: biochemical; conditions: 24-hour study
From the text: as §1

[2] = test system: K6 (normal: keratinocyte); experiment: IC50 against cell lines: K6; conditions: Homo sapiens, read-out: IC50 ± SD against human cancer cell lines
[3] = test system: DU-145 (prostate carcinoma); experiment: IC50 against human cancer cell lines: DU-145; conditions: DU-145, read-out: IC50 ± SD against human cancer cell lines
Procedure: (§2) More specifically, the IC50 values of test compounds were determined by carrying out a fluorimetric histone deacetylase assay following the manufacturer's instructions. For a pan-HDAC assay, HeLa nuclear extracts were used as a source of histone deacetylase (BioVision Inc.). Histone deacetylase isomer inhibition assays were conducted using purified recombinant histone deacetylase proteins of the various isomers (BPS Bioscience Inc.). Reactions were performed in 0.1 mol/L KCl, 20 mmol/L HEPES/NaOH at pH 7.9, 20% glycerol, 0.2 mmol/L DTA, 0.5 mmol/L DTT, and 0.5 mmol/L phenylmethylsulfonylfluoride. […] Reactions were carried out in triplicate for each test compound. Each point represented the mean±SD of replicates.

KB-L30 (KB-resistant) = experiment: IC50 against human cancer cell lines: KB-L30; conditions: read-out: IC50 ± SD against human cancer cell lines
Procedure: as §2

[4] = test system: HUVEC (normal: endothelial); experiment: IC50 against cell lines: HUVEC; conditions: Homo sapiens, read-out: IC50 ± SD against human cancer cell lines
[5] = test system: MDA-MB-231 (breast carcinoma); experiment: IC50 against human cancer cell lines: MDA-MB-231; conditions: MDA-MB-231, read-out: IC50 ± SD against human cancer cell lines
Procedure: as §2

[6] = test system: LNCaP-R1 (prostate carcinoma); experiment: IC50 against human cancer cell lines: LNCaP-R1; conditions: read-out: IC50 ± SD against human cancer cell lines
Procedure: as §2

OECM-1 (oral carcinoma) = experiment: IC50 against human cancer cell lines: OECM-1; conditions: OECM1, read-out: IC50 ± SD against human cancer cell lines
SCC15 (tongue carcinoma) = experiment: IC50 against human cancer cell lines: SCC15; conditions: SCC-15, read-out: IC50 ± SD against human cancer cell lines
C6 glioma cell line = experiment: Cell death in C6 glioma in vitro (LDH assay); type: cell-based; conditions: rat C6 glioma, 30 uM, after 3 days
Procedure: Cell death was analyzed by a lactate dehydrogenase (LDH) assay. The culture medium was centrifuged after the experiment and the activity of LDH released into culture media was detected with a LDH cytotoxicity detection kit (Roche). The percentage of cytotoxicity was determined by the equation: [(Experimental group−Control group)/(Triton-100-treated group (100% maximal death)−Control group)]×100%.

[7] = test system: human glioblastoma (U87MG or GBM8401) cells; experiment: Cell viability in human glioblastoma in vitro (MTT); type: cell-based; conditions: U-87 MG, U87MG or GBM8401, 30 uM, read-out: reduction of the cell viability
Procedure: U87MG human glioblastoma cell line was treated with Compound 7 and analyzed following the procedure described below.
Cell viability was assessed by an MTT assay. Briefly, cells were incubated with 0.25 mg/mL MTT (Sigma) at 37° C. for 1 hour and the MTT fomazan were measured spectrophotometrically (μQuant, Bio-Tek) at 595 nm after dissolution of the crystals in DMSO.

HSC-3 (oral carcinoma) = experiment: IC50 in human cancer cell lines (inhibiting HDAC): HSC-3; conditions: HSC-3, read-out: IC50, inhibiting HDAC in human cancer cell lines
[8] = test system: human glioblastoma (U87-MG-LucNeo cells) xenograft; experiment: In vivo antitumor activity against human glioblastoma xenograft tumor: survival; conditions: intracranial U87 xenograft, Compound 7 50-100 mg/kg p.o.; TMZ 50 mg/kg p.o.
From the text: Male athymic nude mice at 5-6 weeks old were obtained from BioLasco (Taiwan) and maintained in a specific-pathogen-free facility. All experimental procedures were approved by the Institute of Animal Care and Use Committee of Taipei Medical University. Each nude mouse was anesthetized with an i.p. injection of xylazine (Sigma) and zolazepam (Zoletil 50, Virbac), and then secured in a stereotaxic frame.

MCF-7 (breast carcinoma) = experiment: IC50 in human cancer cell lines (inhibiting HDAC): MCF-7; conditions: MCF7, read-out: IC50, inhibiting HDAC in human cancer cell lines
[9] = test system: A549 (non-small-cell lung carcinoma); experiment: IC50 in human cancer cell lines (inhibiting HDAC): A549; conditions: Homo sapiens, A549, read-out: IC50, inhibiting HDAC in human cancer cell lines
TSGH (gastric carcinoma) = experiment: IC50 in human cancer cell lines (inhibiting HDAC): TSGH; conditions: read-out: IC50, inhibiting HDAC in human cancer cell lines
Procedure: as §2

Chain of HDAC2 (Q92769 whole entry, species assumed): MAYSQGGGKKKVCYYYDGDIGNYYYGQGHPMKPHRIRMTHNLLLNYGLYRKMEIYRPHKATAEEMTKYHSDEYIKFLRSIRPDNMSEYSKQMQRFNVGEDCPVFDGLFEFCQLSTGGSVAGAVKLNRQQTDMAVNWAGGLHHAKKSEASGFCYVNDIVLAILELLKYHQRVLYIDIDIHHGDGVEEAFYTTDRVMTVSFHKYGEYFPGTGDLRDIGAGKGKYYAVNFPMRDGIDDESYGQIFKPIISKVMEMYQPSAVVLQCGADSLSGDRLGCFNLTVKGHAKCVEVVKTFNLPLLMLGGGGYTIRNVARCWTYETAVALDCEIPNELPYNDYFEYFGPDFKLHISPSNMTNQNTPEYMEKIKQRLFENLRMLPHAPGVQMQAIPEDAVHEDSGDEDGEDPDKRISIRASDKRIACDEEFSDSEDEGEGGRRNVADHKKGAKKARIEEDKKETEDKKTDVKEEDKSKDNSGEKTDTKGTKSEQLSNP
Chain of HDAC 1 (Q13547 whole entry, species assumed): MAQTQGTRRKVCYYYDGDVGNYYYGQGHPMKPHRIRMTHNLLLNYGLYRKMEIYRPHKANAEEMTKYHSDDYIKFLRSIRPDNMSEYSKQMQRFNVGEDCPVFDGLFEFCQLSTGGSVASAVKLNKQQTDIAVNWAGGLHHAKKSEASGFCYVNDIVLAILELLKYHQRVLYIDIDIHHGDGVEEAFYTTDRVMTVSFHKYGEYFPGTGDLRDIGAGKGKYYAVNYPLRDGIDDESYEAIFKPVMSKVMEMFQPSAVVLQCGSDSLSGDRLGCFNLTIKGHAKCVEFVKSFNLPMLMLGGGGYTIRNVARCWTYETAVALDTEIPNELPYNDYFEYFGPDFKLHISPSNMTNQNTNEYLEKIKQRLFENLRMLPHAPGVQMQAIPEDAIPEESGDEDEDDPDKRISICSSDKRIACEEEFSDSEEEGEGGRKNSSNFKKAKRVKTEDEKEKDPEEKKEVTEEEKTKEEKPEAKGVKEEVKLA

Structure (SMILES): COc1ccc(S(=O)(=O)N2CCc3cc(/C=C/C(=O)NO)cnc32)cc1 [Compound 5b, (E)-N-hydroxy-3-(1-(4-methoxyphenylsulfonyl)-2,3-dihydro-1H-pyrrolo[2,3-b]pyridin-5-yl)acrylamide]
- concentration inducing inhibition of HDAC2 (HDAC2): ≤ 50 nM
- IC50 [1]: 180 ± 70 nM
- concentration inducing inhibition of HDAC 1 (HDAC 1): ≤ 50 nM
- IC50 [2]: 545 ± 39 nM
- IC50 [3]: 90 ± 30 nM
- IC50 (KB-L30 (KB-resistant)): 175 ± 26.8 nM
- IC50 [4]: 62 ± 2.8 nM
- IC50 [5]: 247 ± 9.3 nM
- IC50 [6]: 150 ± 30 nM
- IC50 (OECM-1 (oral carcinoma)): 384 ± 72.1 nM
- IC50 (SCC15 (tongue carcinoma)): 176 ± 63.9 nM

Structure (SMILES): O=C(/C=C/c1cccc(S(=O)(=O)n2ccc3cccnc32)c1)NO [Compound 7, (E)-3-(3-(1H-Pyrrolo[2,3-b]pyridin-1-ylsulfonyl)phenyl)-N-hydroxyacrylamide]
- induction of cell death (LDH) (C6 glioma cell line): about 100%
- cytotoxicity at 30 µM [7]: ~70%
- IC50 (HSC-3 (oral carcinoma)): 660 ± 120 nM
- survival [8]: extended survival longer than TMZ
- IC50 (MCF-7 (breast carcinoma)): 1330 ± 360 nM
- IC50 [9]: 1330 ± 190 nM
- IC50 (TSGH (gastric carcinoma)): 2100 ± 110 nM
